Tests used:
[1] = system: 7W WT APP751 CHO cells; assay: Screening of dihydropyridine compounds (Maybridge), Aβ1-40 and Aβ1-42 ELISA (Example 2); assay type: cell-based, Chinese hamster; settings: 30 μM, 24 hours (FIG. 5A, 5B)
Method: Dihydropyridine compounds were obtained from Maybridge (England). Each compound was dissolved in DMSO. 7W WT APP751 CHO cells overexpressing APP751 were plated into 96-well culture plates in 200 μL of culture medium. Each compound from the library was added to confluent cells to a final concentration of 30 μM. After 24 hours of treatment, culture medium was collected and dissolved 10-fold and 2-fold for measuring the level of Aβ1-40 and Aβ1-42, respectively. Aβ1-40 and Aβ1-42 were determined using commercially available ELISAs (Biosource, CA), following the recommendations of the manufacturer.

CCOC(=O)C1=C(C)NC(C)=C(C(=O)OCC)C1c1ccccc1Cl [Example 6, Diethyl 4-(2-chlorophenyl)-1,4-dihydro-2,6-dimethylpyridine-3,5-dicarboxylate]
melting point: 120 to 121 °C

CC(=O)C1=C(C)NC(C)=C(C(C)=O)C1c1ccccc1Cl [Example 7, 4-(2-Chlorophenyl)-1,4-dihydro-2,6-dimethylpyridine-3,5-di(2-ethanone)]
melting point: 196 to 197 °C

COC(=O)C1=C(C)NC(C)=C(C(=O)OC)C1c1ccccc1Cl [Example 8, Dimethyl 4-(2-chlorophenyl)-1,4-dihydro-2,6-dimethylpyridine-3,5-dicarboxylate]
melting point: 188 to 189 °C

CC1=C(C(=O)OC(C)(C)C)C(c2ccccc2Cl)C(C(=O)OC(C)(C)C)=C(C)N1 [Example 9, Di-tert-butyl 4-(2-chlorophenyl)-1,4-dihydro-2,6-dimethylpyridine-3,5-dicarboxylate]
melting point: 194 to 196 °C

COCCOC(=O)C1=C(C)NC(C)=C(C(=O)OCCOC)C1c1ccccc1Cl [Example 10, Bis(2-methoxyethyl) 4-(2-chlorophenyl)-1,4-dihydro-2,6-dimethylpyridine-3,5-dicarboxylate]
melting point: 120 to 121 °C

CCOC(=O)C1=C(C)NC(C)=C(C(=O)OCC)C1c1ccccc1Br [Example 11, Diethyl 4-(2-bromophenyl)-1,4-dihydro-2,6-dimethylpyridine-3,5-dicarboxylate]
melting point: 144 to 145 °C

CC1=C(C(=O)OC(C)(C)C)C(c2ccccc2F)C(C(=O)OC(C)(C)C)=C(C)N1 [Example 13, Di-tert-butyl 4-(2-fluorophenyl)-1,4-dihydro-2,6-dimethylpyridine-3,5-dicarboxylate]
melting point: 201 to 202 °C

CC1=C(C(=O)OC(C)(C)C)C(c2ccccc2Br)C(C(=O)OC(C)(C)C)=C(C)N1 [Example 14, Di-tert-butyl 4-(2-bromophenyl)-1,4-dihydro-2,6-dimethylpyridine-3,5-dicarboxylate]
melting point: 162 to 164 °C

CCOC(=O)C1=C(C)NC(C)=C(C(=O)OCC)C1c1ccccc1[N+](=O)[O-] [Example 14, Diethyl 1,4-dihydro-2,6-dimethyl-4-(2-nitrophenyl)pyridine-3,5-dicarboxylate]
melting point: 120 to 121 °C

CC1=C(C(=O)OC(C)(C)C)C(c2ccccc2[N+](=O)[O-])C(C(=O)OC(C)(C)C)=C(C)N1 [Example 15, Di-tert-butyl 1,4-dihydro-2,6-dimethyl-4-(2-nitrophenyl)pyridine-3,5-dicarboxylate]
melting point: 159 to 161 °C

C=CCOC(=O)C1=C(C)NC(C)=C(C(=O)OCC=C)C1c1ccccc1Cl [Example 16, Diallyl 4-(2-chlorophenyl)-1,4-dihydro-2,6-dimethylpyridine-3,5-dicarboxylate]
melting point: 98 to 99 °C

COCC1=C(C(=O)OC)C(c2ccccc2Cl)C(C(=O)OC)=C(COC)N1 [Example 17, Dimethyl 4-(2-chlorophenyl)-1,4-dihydro-2,6-bis(methoxymethyl)pyridine-3,5-dicarboxylate]
melting point: 137 to 138 °C

CCOC(=O)C1=C(C)NC(C)=C(C(=O)OCC)C1c1ccccc1I [Example 18, Diethyl 1,4-dihydro-4-(2-iodophenyl)-2,6-dimethylpyridine-3,5-dicarboxylate]
melting point: 173 to 174.5 °C

COC(=O)C1=C(C)NC(C)=C(C(=O)OC)C1c1ccccc1Br [Example 19, Dimethyl 4-(2-bromophenyl)-1,4-dihydro-2,6-dimethylpyridine-3,5-dicarboxylate]
melting point: 164 to 165 °C

CC1=C(C(=O)OC(C)(C)C)C(c2cccc(Cl)c2)C(C(=O)OC(C)(C)C)=C(C)N1 [Example 21, Di-tert-butyl 4-(3-chlorophenyl)-1,4-dihydro-2,6-dimethylpyridine-3,5-dicarboxylate]
melting point: 189.5 to 190.5 °C

CCOC(=O)C1=C(C)NC(C)=C(C(=O)OCC)C1c1ccc(Cl)cc1 [Example 22, Diethyl 4-(4-chlorophenyl)-1,4-dihydro-2,6-dimethylpyridine-3,5-dicarboxylate]
melting point: 151 to 152 °C

CC1=C(C(=O)OC(C)(C)C)C(c2ccc(Cl)cc2)C(C(=O)OC(C)(C)C)=C(C)N1 [Example 23, Di-tert-butyl 4-(4-chlorophenyl)-1,4-dihydro-2,6-dimethylpyridine-3,5-dicarboxylate]
melting point: 191.5 to 192.5 °C

CCOC(=O)C1=C(C)NC(C)=C(C(=O)OCC)C1c1cccc(Br)c1 [Example 24, Diethyl 4-(3-bromophenyl)-1,4-dihydro-2,6-dimethylpyridine-3,5-dicarboxylate]
melting point: 125 to 126 °C

CCOC(=O)C1=C(C)NC(C)=C(C(=O)OCC)C1c1ccc(C)cc1 [JFD 03282, diethyl 2,6-dimethyl-4-(4-methylphenyl)-1,4-dihydropyridine-3,5-dicarboxylate]
concentration of Aβ1-40 compared to controls [1]: significantly decreased
concentration of Aβ1-42 compared to controls [1]: significantly decreased
concentration of total β-amyloid (Aβ1-40+Aβ1-42) compared to controls [1]: significantly decreased

CC1=C(C#N)C(c2ccc(Cl)c(Cl)c2)C(C#N)=C(C)N1 [JFD 03292, 4-(3,4-dichlorophenyl)-2,6-dimethyl-1,4-dihydropyridine-3,5-dicarbonitrile]
concentration of Aβ1-40 compared to controls [1]: significantly decreased
concentration of total β-amyloid (Aβ1-40+Aβ1-42) compared to controls [1]: significantly decreased

COC(=O)C1=C(C)NC(C)=C(C(=O)OC)C1c1ccc(Cl)c(Cl)c1 [JFD 03293, dimethyl 4-(3,4-dichlorophenyl)-2,6-dimethyl-1,4-dihydropyridine-3,5-dicarboxylate]
concentration of Aβ1-40 compared to controls [1]: significantly decreased
concentration of Aβ1-42 compared to controls [1]: significantly decreased
concentration of total β-amyloid (Aβ1-40+Aβ1-42) compared to controls [1]: significantly decreased

CCOC(=O)C1=C(C)NC(C)=C(C(=O)OCC)C1c1ccc(Cl)c(Cl)c1 [JFD 03294, diethyl 4-(3,4-dichlorophenyl)-2,6-dimethyl-1,4-dihydropyridine-3,5-dicarboxylate]
concentration of Aβ1-40 compared to controls [1]: significantly decreased
concentration of Aβ1-42 compared to controls [1]: significantly decreased
concentration of total β-amyloid (Aβ1-40+Aβ1-42) compared to controls [1]: significantly decreased

CCOC(=O)C1=C(C)NC(C)=C(C(=O)OCC)C1c1ccccc1Cl [JFD 03305, diethyl 4-(2-chlorophenyl)-2,6-dimethyl-1,4-dihydropyridine-3,5-dicarboxylate]
concentration of Aβ1-40 compared to controls [1]: significantly decreased
concentration of Aβ1-42 compared to controls [1]: significantly decreased
concentration of total β-amyloid (Aβ1-40+Aβ1-42) compared to controls [1]: significantly decreased

CCOC(=O)C1=C(C)NC(C)=C(C(=O)OCC)C1c1ccccc1[N+](=O)[O-] [JFD 03311, diethyl 2,6-dimethyl-4-(2-nitrophenyl)-1,4-dihydropyridine-3,5-dicarboxylate]
concentration of Aβ1-40 compared to controls [1]: significantly decreased
concentration of total β-amyloid (Aβ1-40+Aβ1-42) compared to controls [1]: significantly decreased

CCOC(=O)C1=C(C)NC(C)=C(C(=O)OCC)C1c1ccc(F)cc1 [JFD 03318, diethyl 4-(4-fluorophenyl)-2,6-dimethyl-1,4-dihydropyridine-3,5-dicarboxylate]
concentration of Aβ1-40 compared to controls [1]: significantly decreased
concentration of Aβ1-42 compared to controls [1]: significantly decreased
concentration of total β-amyloid (Aβ1-40+Aβ1-42) compared to controls [1]: significantly decreased

O=C1CC(c2ccccc2)CC(=O)N1c1ccc(Oc2ccc(Cl)cc2)cc1 [PD 00463, 1-[4-(4-chlorophenoxy)phenyl]-4-phenyldihydropyridine-2,6(1H,3H)-dione]
concentration of Aβ1-40 compared to controls [1]: significantly decreased
concentration of Aβ1-42 compared to controls [1]: significantly decreased
concentration of total β-amyloid (Aβ1-40+Aβ1-42) compared to controls [1]: significantly decreased

CCOC(=O)C1=C(C)NC(C)=C(C(=O)OCC)C1c1ccc(Cl)cc1Cl [RJC 03403, diethyl 4-(2,4-dichlorophenyl)-2,6-dimethyl-1,4-dihydro-3,5-pyridinedicarboxylate]
concentration of Aβ1-40 compared to controls [1]: significantly decreased
concentration of Aβ1-42 compared to controls [1]: significantly decreased
concentration of total β-amyloid (Aβ1-40+Aβ1-42) compared to controls [1]: significantly decreased

CCOC(=O)C1=C(C)NC(C)=C(C(=O)OCC)C1c1ccc(-c2ccccc2C(F)(F)F)o1 [RJC 03405, diethyl 2,6-dimethyl-4-{5-[2-(trifluoromethyl)phenyl]-2-furyl}-1,4-dihydro-3,5-pyridinedicarboxylate]
concentration of Aβ1-40 compared to controls [1]: significantly decreased
concentration of total β-amyloid (Aβ1-40+Aβ1-42) compared to controls [1]: significantly decreased

CCOC(=O)C1=C(C)NC(C)=C(C(=O)OCC)C1c1ccc(OC)cc1Cl [RJC 03413, diethyl 4-(2-chloro-4-methoxyphenyl)-2,6-dimethyl-1,4-dihydro-3,5-pyridinedicarboxylate]
concentration of Aβ1-40 compared to controls [1]: significantly decreased
concentration of total β-amyloid (Aβ1-40+Aβ1-42) compared to controls [1]: significantly decreased

COC(=O)C1=C(C)NC(C)=C(C(=O)OC)C1c1ccc(-c2ccsc2C(=O)OC)o1 [SEW 02070, dimethyl 4-{5-[2-(methoxycarbonyl)-3-thienyl]-2-furyl}-2,6-dimethyl-1,4-dihydropyridine-3,5-dicarboxylate]
concentration of Aβ1-40 compared to controls [1]: significantly decreased
concentration of total β-amyloid (Aβ1-40+Aβ1-42) compared to controls [1]: significantly decreased

CCOC(=O)C1=C(C)NC(C)=C(C(=O)OCC)C1c1cccc([N+](=O)[O-])c1 [XBX 00343, diethyl 2,6-dimethyl-4-(3-nitrophenyl)-1,4-dihydropyridine-3,5-dicarboxylate]
concentration of Aβ1-40 compared to controls [1]: significantly decreased
concentration of total β-amyloid (Aβ1-40+Aβ1-42) compared to controls [1]: significantly decreased
